One assay deals with T1, PTPN1 (PTP1B) (Homo sapiens, UniProt P18031).
T1 construct: purchased
T1 sequence (P18031 1-435): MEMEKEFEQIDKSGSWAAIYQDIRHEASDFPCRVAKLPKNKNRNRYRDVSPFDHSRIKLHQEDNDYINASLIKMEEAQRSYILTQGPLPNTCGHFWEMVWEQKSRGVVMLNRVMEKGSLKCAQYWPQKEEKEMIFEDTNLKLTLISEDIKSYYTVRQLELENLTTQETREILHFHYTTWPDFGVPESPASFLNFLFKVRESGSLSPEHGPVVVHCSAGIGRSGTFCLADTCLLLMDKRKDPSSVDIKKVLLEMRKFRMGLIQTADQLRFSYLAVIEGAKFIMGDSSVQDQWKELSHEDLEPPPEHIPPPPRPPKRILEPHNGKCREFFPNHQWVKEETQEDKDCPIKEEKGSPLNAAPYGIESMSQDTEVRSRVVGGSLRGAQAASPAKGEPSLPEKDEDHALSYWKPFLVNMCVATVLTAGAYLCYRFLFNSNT
The assay can be described thus: pNPP hydrolysis by PTPN1 (PTP1B) phosphatase. The note with it: untitled table after Table 4; mean, SEM in wrapped line. It is filed as biochemical.

For another assay, the target named is T2, PTPRJ (Homo sapiens, UniProt Q12913).
T2 construct: purchased
T2 sequence (Q12913 36-1337): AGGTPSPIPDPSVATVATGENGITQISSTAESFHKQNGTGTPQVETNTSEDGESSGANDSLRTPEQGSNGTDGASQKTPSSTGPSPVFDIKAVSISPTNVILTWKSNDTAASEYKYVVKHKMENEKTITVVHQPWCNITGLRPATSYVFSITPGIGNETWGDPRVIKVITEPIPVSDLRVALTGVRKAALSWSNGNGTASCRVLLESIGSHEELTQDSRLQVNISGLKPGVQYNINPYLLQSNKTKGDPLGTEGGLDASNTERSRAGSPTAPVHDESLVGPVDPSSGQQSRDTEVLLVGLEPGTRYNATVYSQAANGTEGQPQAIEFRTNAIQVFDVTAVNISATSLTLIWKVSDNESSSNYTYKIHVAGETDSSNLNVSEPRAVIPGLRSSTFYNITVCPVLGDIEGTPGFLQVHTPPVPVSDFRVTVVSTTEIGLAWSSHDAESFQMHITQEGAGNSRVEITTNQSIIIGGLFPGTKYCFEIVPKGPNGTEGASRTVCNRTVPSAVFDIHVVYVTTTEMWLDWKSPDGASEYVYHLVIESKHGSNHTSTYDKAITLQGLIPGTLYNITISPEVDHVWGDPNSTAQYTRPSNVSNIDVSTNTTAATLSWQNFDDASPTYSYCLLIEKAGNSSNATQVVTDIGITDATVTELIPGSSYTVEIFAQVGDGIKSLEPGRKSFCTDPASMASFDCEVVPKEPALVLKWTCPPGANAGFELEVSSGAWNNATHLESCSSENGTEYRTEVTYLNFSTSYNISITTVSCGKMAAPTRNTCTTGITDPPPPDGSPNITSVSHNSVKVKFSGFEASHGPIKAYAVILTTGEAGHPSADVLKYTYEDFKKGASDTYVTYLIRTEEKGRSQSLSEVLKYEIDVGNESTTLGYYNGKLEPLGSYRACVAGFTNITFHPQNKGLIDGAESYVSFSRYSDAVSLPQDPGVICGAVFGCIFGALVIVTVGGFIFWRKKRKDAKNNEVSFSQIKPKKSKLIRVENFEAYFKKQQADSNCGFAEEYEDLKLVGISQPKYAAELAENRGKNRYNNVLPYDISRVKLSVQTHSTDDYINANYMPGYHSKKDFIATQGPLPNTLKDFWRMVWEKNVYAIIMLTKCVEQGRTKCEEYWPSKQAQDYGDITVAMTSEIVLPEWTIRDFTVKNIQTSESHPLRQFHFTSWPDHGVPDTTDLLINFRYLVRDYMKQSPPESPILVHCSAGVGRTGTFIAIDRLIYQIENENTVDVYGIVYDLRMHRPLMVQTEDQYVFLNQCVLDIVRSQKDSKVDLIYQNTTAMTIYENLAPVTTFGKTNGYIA
The assay can be described thus: pNPP hydrolysis by PTPRJ phosphatase. It is filed as biochemical. An excerpt:
(§1) Human […] ([…]-pY-[…]) phosphopeptide (Pierce/ThermoFisher) were synthesized.

In a further assay the target is PTPRF (Homo sapiens, UniProt P10586). As to the kind of experiment: pNPP hydrolysis by recombinant PTPRF phosphatase.
The target of another assay is PTPRS (Homo sapiens, UniProt Q13332). The assay can be described thus: pNPP hydrolysis by recombinant PTPRS phosphatase. It is filed as biochemical.
PTPRS, sequence (Q13332 30-1948, species assumed): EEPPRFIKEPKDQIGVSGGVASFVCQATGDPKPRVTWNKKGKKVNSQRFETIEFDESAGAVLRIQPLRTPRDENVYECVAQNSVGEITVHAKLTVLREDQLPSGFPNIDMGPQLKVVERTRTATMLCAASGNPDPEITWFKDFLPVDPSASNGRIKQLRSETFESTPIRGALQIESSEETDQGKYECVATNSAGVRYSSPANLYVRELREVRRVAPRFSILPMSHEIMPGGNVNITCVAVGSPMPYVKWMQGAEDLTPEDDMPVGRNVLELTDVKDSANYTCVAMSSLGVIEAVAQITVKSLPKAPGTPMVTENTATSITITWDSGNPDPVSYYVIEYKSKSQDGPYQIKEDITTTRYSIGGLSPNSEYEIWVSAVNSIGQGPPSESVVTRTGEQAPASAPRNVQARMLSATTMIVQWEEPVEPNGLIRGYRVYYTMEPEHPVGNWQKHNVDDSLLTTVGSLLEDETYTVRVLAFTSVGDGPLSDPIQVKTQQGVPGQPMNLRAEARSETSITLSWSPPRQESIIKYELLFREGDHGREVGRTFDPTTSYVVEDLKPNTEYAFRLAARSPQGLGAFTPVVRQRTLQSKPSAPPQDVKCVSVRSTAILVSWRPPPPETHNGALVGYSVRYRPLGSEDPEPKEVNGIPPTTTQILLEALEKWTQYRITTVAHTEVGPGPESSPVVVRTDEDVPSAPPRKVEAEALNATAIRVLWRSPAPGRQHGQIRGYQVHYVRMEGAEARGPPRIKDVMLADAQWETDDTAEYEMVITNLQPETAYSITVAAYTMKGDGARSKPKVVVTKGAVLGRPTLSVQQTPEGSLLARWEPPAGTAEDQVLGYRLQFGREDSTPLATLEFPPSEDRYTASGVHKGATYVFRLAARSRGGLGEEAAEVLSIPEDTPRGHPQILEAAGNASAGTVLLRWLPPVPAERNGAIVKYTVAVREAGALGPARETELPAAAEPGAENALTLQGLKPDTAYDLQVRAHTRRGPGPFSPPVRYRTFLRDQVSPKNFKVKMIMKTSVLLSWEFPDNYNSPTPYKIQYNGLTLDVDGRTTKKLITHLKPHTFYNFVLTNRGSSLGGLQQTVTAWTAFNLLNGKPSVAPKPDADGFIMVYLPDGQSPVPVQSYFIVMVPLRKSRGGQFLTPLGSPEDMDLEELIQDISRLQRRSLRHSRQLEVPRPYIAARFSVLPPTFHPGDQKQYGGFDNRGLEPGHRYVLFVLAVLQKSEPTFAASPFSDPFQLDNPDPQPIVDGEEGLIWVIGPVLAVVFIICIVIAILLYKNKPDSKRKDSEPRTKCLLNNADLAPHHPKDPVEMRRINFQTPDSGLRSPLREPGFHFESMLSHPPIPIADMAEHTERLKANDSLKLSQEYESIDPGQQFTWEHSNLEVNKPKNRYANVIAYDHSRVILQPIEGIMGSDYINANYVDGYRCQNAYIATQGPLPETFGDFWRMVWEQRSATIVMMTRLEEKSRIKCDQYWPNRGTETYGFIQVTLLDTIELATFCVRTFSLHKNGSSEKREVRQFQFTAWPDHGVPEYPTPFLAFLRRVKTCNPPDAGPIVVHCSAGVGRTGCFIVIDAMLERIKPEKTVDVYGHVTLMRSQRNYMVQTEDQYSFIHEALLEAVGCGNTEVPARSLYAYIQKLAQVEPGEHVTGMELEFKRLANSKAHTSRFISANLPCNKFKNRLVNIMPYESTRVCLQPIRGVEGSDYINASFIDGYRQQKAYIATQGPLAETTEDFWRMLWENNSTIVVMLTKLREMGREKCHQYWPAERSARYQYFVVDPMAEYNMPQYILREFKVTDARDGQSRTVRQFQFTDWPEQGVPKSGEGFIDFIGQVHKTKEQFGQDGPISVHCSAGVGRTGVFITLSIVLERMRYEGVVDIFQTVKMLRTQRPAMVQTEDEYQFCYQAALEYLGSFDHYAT
Text: as §1

Another assay concerns the target recombinant PTPRD (Homo sapiens, UniProt P23468). The assay can be described thus: pNPP hydrolysis by recombinant PTPRD phosphatase.
The mark [1] stands for this setting: untitled table after Table 4, mean, SEM in wrapped line.
[2] abbreviates: PTPRF IC50, untitled table after Table 4, mean, SEM in wrapped line.
Where [3] appears, read: Table 4, mean (SEM) of three independent experiments, * = instability, no valid triplicate.
Where [4] appears, read: PTPRD IC50, Table 4, mean (SEM) of three independent experiments, * = instability, no valid triplicate.
Setting [5] is: PTPRD IC50, untitled table after Table 4, mean, SEM in wrapped line, compounds with PTPRD IC50 <5 μM.
The mark [6] stands for this setting: PTPRF IC50, Table 4, mean (SEM) of three independent experiments, * = instability, no valid triplicate.

The structures appear in SMILES notation. Like-named read-outs stand apart in the source and are kept apart here.

recombinant PTPRD, sequence (P23468 21-1912): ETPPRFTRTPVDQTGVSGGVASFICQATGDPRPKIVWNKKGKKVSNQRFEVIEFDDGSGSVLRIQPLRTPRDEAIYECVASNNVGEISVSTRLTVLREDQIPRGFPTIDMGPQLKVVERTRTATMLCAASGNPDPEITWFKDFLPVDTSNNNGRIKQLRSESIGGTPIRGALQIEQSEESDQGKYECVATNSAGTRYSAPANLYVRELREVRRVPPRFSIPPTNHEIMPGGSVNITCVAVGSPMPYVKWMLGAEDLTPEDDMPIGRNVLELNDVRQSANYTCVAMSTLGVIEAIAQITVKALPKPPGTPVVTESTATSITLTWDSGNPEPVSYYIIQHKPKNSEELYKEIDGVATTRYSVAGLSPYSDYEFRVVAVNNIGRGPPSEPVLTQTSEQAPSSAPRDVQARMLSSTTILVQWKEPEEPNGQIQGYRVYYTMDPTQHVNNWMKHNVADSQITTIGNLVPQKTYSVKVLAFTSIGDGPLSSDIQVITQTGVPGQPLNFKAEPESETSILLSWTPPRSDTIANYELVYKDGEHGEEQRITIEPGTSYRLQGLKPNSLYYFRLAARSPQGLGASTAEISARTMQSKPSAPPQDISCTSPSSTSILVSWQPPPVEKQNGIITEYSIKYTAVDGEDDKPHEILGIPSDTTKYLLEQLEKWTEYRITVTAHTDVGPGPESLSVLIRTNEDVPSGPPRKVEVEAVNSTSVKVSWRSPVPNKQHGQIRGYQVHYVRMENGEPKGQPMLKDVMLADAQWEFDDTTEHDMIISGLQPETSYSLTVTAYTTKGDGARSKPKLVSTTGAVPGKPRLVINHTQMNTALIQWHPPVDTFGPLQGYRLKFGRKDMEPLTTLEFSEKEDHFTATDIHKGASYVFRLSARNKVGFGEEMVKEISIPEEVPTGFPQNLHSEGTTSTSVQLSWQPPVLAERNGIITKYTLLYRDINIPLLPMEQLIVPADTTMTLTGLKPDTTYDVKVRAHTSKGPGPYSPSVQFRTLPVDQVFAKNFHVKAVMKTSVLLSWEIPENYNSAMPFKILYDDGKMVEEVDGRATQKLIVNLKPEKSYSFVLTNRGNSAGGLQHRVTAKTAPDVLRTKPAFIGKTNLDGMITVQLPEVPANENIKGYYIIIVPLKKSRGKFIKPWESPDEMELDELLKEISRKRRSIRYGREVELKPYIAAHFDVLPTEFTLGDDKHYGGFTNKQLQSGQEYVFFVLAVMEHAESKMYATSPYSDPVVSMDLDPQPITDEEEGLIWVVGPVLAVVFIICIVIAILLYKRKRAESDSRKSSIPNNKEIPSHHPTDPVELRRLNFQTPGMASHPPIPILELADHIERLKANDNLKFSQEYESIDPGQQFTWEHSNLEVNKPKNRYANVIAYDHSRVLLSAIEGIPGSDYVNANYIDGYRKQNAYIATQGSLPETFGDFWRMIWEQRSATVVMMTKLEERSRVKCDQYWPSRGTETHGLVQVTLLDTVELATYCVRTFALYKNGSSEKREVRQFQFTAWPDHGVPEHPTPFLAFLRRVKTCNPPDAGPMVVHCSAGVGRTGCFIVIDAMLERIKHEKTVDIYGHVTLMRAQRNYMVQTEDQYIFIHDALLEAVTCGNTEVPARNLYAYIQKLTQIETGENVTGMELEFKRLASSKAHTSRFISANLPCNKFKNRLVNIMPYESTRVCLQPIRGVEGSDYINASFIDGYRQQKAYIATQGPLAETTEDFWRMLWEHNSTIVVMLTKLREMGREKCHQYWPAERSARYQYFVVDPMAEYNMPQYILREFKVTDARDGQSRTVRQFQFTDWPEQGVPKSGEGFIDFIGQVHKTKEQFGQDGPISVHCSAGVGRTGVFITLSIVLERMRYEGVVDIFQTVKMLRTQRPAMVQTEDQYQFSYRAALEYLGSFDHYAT
Protocol for PTPRF: (§2) Phosphatase assays: Data for each assay type (3 wells/experimental condition, read using a Spectromax plate reader) was plotted vs time, and results derived from the slopes of linear regions were reported from triplicate independent experiments.
(§3) For assays of compound ligands that were likely pseudo-irreversible, 18 min preincubations were also added. For work determining the effect of flavonoids on pNPP hydrolysis, a 96 well half-area plate was prepared by first filling each well to be tested with 18 μL of 50 μM pNPP and 25 uL of running buffer, and 2 μL of DMSO containing the desired concentration of flavonoid and/or peptide. PTPRD phosphatase was diluted 1:50 in a dilution buffer.
Protocol for recombinant PTPRD: as §2, §3

Broadly, the IC50 is the concentration needed to halve the response being measured. Take `COc1cccc(COc2cc3c(c(C=O)c2OC)CC(O)OC3=O)c1` (centres unmarked) [Compound 31, 3-Hydroxy-6-methoxy-7-((3-methoxybenzyl)oxy)-1-oxoisochromane-5-carbaldehyde]: the IC50 against PTPN1 (PTP1B) was 203 µM; on PTPRJ (setting [1]), 62.8 µM; at PTPRF (setting [2]) it was 5.73 µM; at PTPRS (setting [3]), 13 µM; on PTPRS (setting [1]), 3.25 µM; on recombinant PTPRD (setting [4]), 4.12 µM. Further, the IC50 at recombinant PTPRD (setting [5]) stood at 5.64 µM.

Regarding `COc1c(OCc2ccc(C)s2)cc2c(c1C=O)CC(O)OC2=O` (centres unmarked) [Compound 46, 3-Hydroxy-6-methoxy-7-((5-methylthiophen-2-yl)methoxy)-1-oxoisochromane-5-carbaldehyde], the concentration for half-maximal inhibition (IC50) on PTPRJ (setting [3]) was found to be 19.8 µM; against PTPRJ (setting [1]), 19.8 µM; at PTPRF (setting [6]), 3.5 µM; on PTPRF (setting [2]) it was 3.5 µM; at PTPRS (setting [3]) it was 1.4 µM; at PTPRS (setting [1]) it was 1.4 µM. The 50% inhibitory concentration (IC50) at recombinant PTPRD (setting [4]) and at recombinant PTPRD (setting [5]) was 0.92 µM each time.

Regarding `COc1c(OCCCCc2ccc(Cl)cc2)cc2c(c1C=O)CC(O)OC2=O` (centres unmarked) [Compound 53, 7-(4-(4-Chlorophenyl)butoxy)-3-hydroxy-6-methoxy-1-oxoisochromane-5-carbaldehyde], the 50% inhibitory concentration (IC50) on PTPN1 (PTP1B) worked out at 65.7 µM; on PTPRJ (setting [3]), 28.9 µM; on PTPRJ (setting [1]), 28.9 µM; at PTPRF (setting [6]), 5.67 µM; at PTPRF (setting [2]), 5.67 µM; on PTPRS (setting [3]), 3.09 µM. Further, the concentration for half-maximal inhibition (IC50) at PTPRS (setting [1]) came out at 3.09 µM.

For the molecule `COc1c(OCC=C(C)C)cc2c(c1C=O)CC(O)OC2=O` (centres unmarked) [Compound 59, 3-Hydroxy-6-methoxy-7-(3-methyl-but-2-enyloxy)-1-oxo-isochroman-5-carbaldehyde], the IC50 was above 100 µM at PTPN1 (PTP1B); 17.8 µM on PTPRJ (setting [3]); 17.8 µM at PTPRJ (setting [1]); 2.46 µM on PTPRF (setting [6]); 2.46 µM on PTPRF (setting [2]); 1.8 µM on PTPRS (setting [3]). Moreover, the IC50 on PTPRS (setting [1]) was 1.8 µM; on recombinant PTPRD (setting [4]), 3.21 µM; at recombinant PTPRD (setting [5]), 3.21 µM.

On to `COc1c(OCc2ccccc2)cc2c(c1C=O)CC(O)OC2=O` (centres unmarked) [Compound 27, 7-(Benzyloxy)-3-hydroxy-6-methoxy-1-oxoisochromane-5-carbaldehyde], for which the IC50 at PTPN1 (PTP1B) turned out to be 171 µM; on PTPRJ (setting [3]), 47.2 µM; against PTPRJ (setting [1]), 47.2 µM; on PTPRF (setting [6]), 3.62 µM; on PTPRF (setting [2]) it was 3.62 µM; on PTPRS (setting [3]) it was 1.6 µM. Moreover, the IC50 at PTPRS (setting [1]) is 1.6 µM; at recombinant PTPRD (read-out: PTPRD IC50, untitled table after Table 4, mean, SEM in wrapped line, compounds with PTPRD IC50 <5 μM), 1.64 µM.

`COc1c(OCC2CCCCC2)cc2c(c1C=O)CC(O)OC2=O` (centres unmarked) [Compound 68, 7-Cyclohexylmethoxy-3-hydroxy-6-methoxy-1-oxo-isochroman-5-carbaldehyde]: the half-maximal inhibitory concentration (IC50) came to 101 µM against PTPN1 (PTP1B); 0.56 µM at PTPRJ (setting [1]); 0.76 µM at PTPRF (setting [6]); 0.76 µM at PTPRF (setting [2]); 1.06 µM on PTPRS (setting [3]); 1.06 µM on PTPRS (setting [1]).

Consider `COc1c(OCCCc2ccccc2)cc2c(c1C=O)CC(O)OC2=O` (centres unmarked) [Compound 52, 3-Hydroxy-6-methoxy-1-oxo-7-(3-phenylpropoxy)isochromane-5-carbaldehyde], for which the IC50 at PTPRF (setting [6]) was 4.41 µM; at PTPRF (setting [2]), 4.41 µM; on PTPRS (setting [3]) it was 0.93 µM; at PTPRS (setting [1]) it was 0.93 µM.

On to `COc1c(OCC2CC2)cc2c(c1C=O)CC(O)OC2=O` (centres unmarked) [Compound 64, 7-Cyclopropylmethoxy-3-hydroxy-6-methoxy-1-oxo-isochroman-5-carbaldehyde], for which the IC50 on recombinant PTPRD (setting [4]) and on recombinant PTPRD (setting [5]) was 4.18 µM in each case.

Consider `COc1c(OCc2ccc(Cl)cc2Cl)cc2c(c1C=O)CC(O)OC2=O` (centres unmarked) [Compound 40, 7-((2,4-Dichlorobenzyl)oxy)-3-hydroxy-6-methoxy-1-oxoisochromane-5-carbaldehyde], for which the half-inhibitory concentration (IC50) was determined as 76 µM against PTPN1 (PTP1B); 14.6 µM against PTPRJ (setting [3]); 14.6 µM against PTPRJ (setting [1]); 3.55 µM at PTPRF (setting [6]); 3.55 µM on PTPRF (setting [2]); 1.03 µM on PTPRS (setting [3]). At PTPRS (setting [1]), the IC50 came out at 1.03 µM.

As for `COc1c(OCCCC(F)(F)F)cc2c(c1C=O)CC(O)OC2=O` (centres unmarked) [Compound 63, 3-Hydroxy-6-methoxy-1-oxo-7-(4,4,4-trifluorobutoxy)isochromane-5-carbaldehyde], the IC50 at PTPRJ (setting [1]) was determined as 108 µM.

As for `COc1c(OCc2ccc(Oc3ccc(F)cc3)cc2)cc2c(c1C=O)CC(O)OC2=O` (centres unmarked) [Compound 44, 7-((4-(4-Fluorophenoxy)benzyl)oxy)-3-hydroxy-6-methoxy-1-oxoisochromane-5-carbaldehyde], the half-maximal inhibitory concentration (IC50) at recombinant PTPRD (setting [4]) and on recombinant PTPRD (setting [5]) was 2.49 µM each time.

In the case of `COc1c(OCc2c(Cl)cc(Cl)cc2Cl)cc2c(c1C=O)CC(O)OC2=O` (centres unmarked) [Compound 42], the half-maximal inhibitory concentration (IC50) on PTPN1 (PTP1B) is 28.9 µM; at PTPRJ (setting [3]) it was 23.6 µM; at PTPRJ (setting [1]), 23.6 µM; on PTPRS (setting [3]) it was 2.15 µM; on PTPRS (setting [1]) it was 2.2 µM; on recombinant PTPRD (setting [4]) it was 2.47 µM. Besides, at recombinant PTPRD (setting [5]), the IC50 amounted to 2.5 µM.

On to `COc1c(OCc2ccc3ccccc3c2)cc2c(c1C=O)CC(O)OC2=O` (centres unmarked) [Compound 49, 3-Hydroxy-6-methoxy-7-(naphthalen-2-ylmethoxy)-1-oxoisochromane-5-carbaldehyde], for which the IC50 against PTPN1 (PTP1B) amounted to 221 µM; against PTPRJ (setting [3]), 33.3 µM; against PTPRJ (setting [1]), 33.3 µM; on PTPRF (setting [6]), 5.87 µM; on PTPRF (setting [2]) it was 5.87 µM; on PTPRS (setting [3]), 4.61 µM. For the same molecule, the IC50 on PTPRS (setting [1]) was found to be 4.61 µM.

Turning to `COc1c(OCC2CCCCCC2)cc2c(c1C=O)CC(O)OC2=O` (centres unmarked) [Compound 69], the IC50 against PTPN1 (PTP1B) was 27.1 µM; on PTPRJ (setting [3]), 9.81 µM; against PTPRJ (setting [1]) it was 9.8 µM; at PTPRF (setting [6]) it was 1.16 µM; at PTPRF (setting [2]), 1.16 µM; on PTPRS (setting [3]), 0.77 µM. In addition, the IC50 on PTPRS (setting [1]) stood at 0.77 µM.

For the molecule `COc1c(OCCc2ccccc2)cc2c(c1C=O)CC(O)OC2=O` (centres unmarked) [Compound 50, 3-Hydroxy-6-methoxy-1-oxo-7-phenethoxyisochromane-5-carbaldehyde], the IC50 against PTPN1 (PTP1B) worked out at 219 µM; at PTPRJ (setting [3]), 54.8 µM; at PTPRJ (setting [1]), 54.8 µM; at PTPRS (setting [3]) it was 3.03 µM; on PTPRS (setting [1]), 3.03 µM; at recombinant PTPRD (setting [4]) it was 4.57 µM. The IC50 at recombinant PTPRD (setting [5]) is 4.57 µM.

`COc1c(OCc2ccc(Br)cc2)cc2c(c1C=O)CC(O)OC2=O` (centres unmarked) [Compound 39, 7-((4-Bromobenzyl)oxy)-3-hydroxy-6-methoxy-1-oxoisochromane-5-carbaldehyde]: the 50% inhibitory concentration (IC50) against PTPRJ (setting [3]) is 29.9 µM; at PTPRJ (setting [1]) it was 29.9 µM; on PTPRF (setting [6]), 3.82 µM; on PTPRF (setting [2]), 3.82 µM; at PTPRS (setting [3]), 5 µM; at PTPRS (setting [1]), 5 µM.

The values above are taken from patent US11987564B2, “PTPRD inhibitors and uses thereof” (United States Government as represented by the Department …, priority 2021, dated 2024).
